Consider three molecules from PMC4611054, “Quantitative time-resolved analysis reveals intricate, differential regulation of standard- and immuno-proteasomes” (eLife, 2015).

What all share (type): biochemical
Test [1] concerns the target T1, 20S mouse liver proteasome (Mus musculus, UniProt O55234+P70195+Q60692).
T1 construct: gene Psmb5; native 20S core particle purified from mouse liver; alpha7beta7beta7alpha7; with Proteasome subunit beta type-1; Proteasome subunit beta type-2; Proteasome subunit beta type-3; Proteasome subunit beta type-4; Proteasome subunit alpha type-1; Proteasome subunit alpha type-2; Proteasome subunit alpha type-3; Proteasome subunit alpha type-4; Proteasome subunit alpha type-5; Proteasome subunit alpha type-6; Proteasome subunit alpha type-7
Put plainly: Bz-VGR-MCA hydrolysis with and without peptide. The conditions noted are these: activator; allosteric non-catalytic modifier site; terminal groups of LLVY not told; pH 7.2, 37 °C.

Test [2] deals with T2, human 20S s-proteasome (T2 proteasome) (Homo sapiens, UniProt P28072+P28074+Q99436).
T2 construct: gene PSMB5; native 20S core particle purified from T2 cells; alpha7beta7beta7alpha7; with Proteasome subunit beta type-1; Proteasome subunit beta type-2; Proteasome subunit beta type-3; Proteasome subunit beta type-4; Proteasome subunit alpha type-1; Proteasome subunit alpha type-2; Proteasome subunit alpha type-3; Proteasome subunit alpha type-4; Proteasome subunit alpha type-5; Proteasome subunit alpha type-6; Proteasome subunit alpha type-7
Nature of the test: fluorogenic peptide hydrolysis time courses, Bayesian fit of compartment model. The conditions noted are these: TEAD buffer pH 7.2, 37 °C, 20-640 μM substrate, model-inferred active site affinity.

Test [3] concerns the target T1, 20S mouse liver proteasome. Put plainly: fluorogenic peptide hydrolysis, initial velocities, ABC-SMC fit of Michaelis-Menten and substrate-inhibition models. The conditions noted are these: TEAD buffer pH 7.2, 37 °C, authors state the models fit poorly.

Structures are written as SMILES. Residues, ends and D or L forms follow the SMILES beside them.

In the case of `Cc1cc(=O)oc2cc(NC(=O)[C@H](Cc3ccc(O)cc3)NC(=O)[C@@H](NC(=O)[C@H](CC(C)C)NC(=O)[C@H](CC(C)C)NC(=O)CCC(=O)O)C(C)C)ccc12` [LLVY peptide] (HELM PEPTIDE1{[O=C(O)CCC(=O)[*:2]].L.L.V.Y.[Cc1cc(=O)oc2cc(N[*:1])ccc12]}$$$$V2.0), the “Bz-VGR-MCA hydrolysis with and without peptide” value in test [1] was “degradation rate of the substrate Bz-VGR-MCA increases in the presence of the peptide LLVY”.

With `Cc1cc(=O)oc2cc(NC(=O)[C@H](Cc3ccc(O)cc3)NC(=O)[C@@H](NC(=O)[C@H](CC(C)C)NC(=O)[C@H](CC(C)C)NC(=O)CCC(=O)O)C(C)C)ccc12` [Suc-LLVY-MCA] (HELM PEPTIDE1{[O=C(O)CCC(=O)[*:2]].L.L.V.Y.[Cc1cc(=O)oc2cc(N[*:1])ccc12]}$$$$V2.0), the KaS result in test [2] (site mainly beta5) is “we observe a higher active site affinity (KaS) with a lower Hill coefficient (na)”. The KM entry in test [3] (site mainly beta5/beta5i) was “Scatterplot of the kinetic parameters vmax and KM from the inferred posterior parameter distributions”.

Consider `Cc1cc(=O)oc2cc(NC(=O)[C@H](CCC(=O)O)NC(=O)[C@H](CC(C)C)NC(=O)[C@H](CC(C)C)NC(=O)OCc3ccccc3)ccc12` [Z-LLE-MCA] (HELM PEPTIDE1{[O=C(OCc1ccccc1)[*:2]].L.L.E.[Cc1cc(=O)oc2cc(N[*:1])ccc12]}$$$$V2.0), for which the KaS entry in test [2] (site mainly beta1) was “for i-proteasomes we observe lower affinity to the active site (KaS)”. Further, in test [3] (site mainly beta1/beta1i), the KM entry is “The substrates Suc-LLVY-MCA, Bz-VGR-MCA and Z-LLE-MCA were hydrolysed by mouse proteasome”.
